Read-outs that look alike come from different tables or passages of the source.
Tests used:
[1] = Beagle, dog, in vivo
[2] = dog, in vivo, 0.8 mg
in vivo = settings: dog

With `CNC[C@H](O)c1ccc(O)c(O)c1` [epinephrine] the “buccal increase over basal level as share of the increase demonstrated by benchmark intramuscular injection” value [1] was “approximately 20%”.

In the case of `C=CCN1CC[C@]23c4c5ccc(O)c4O[C@H]2C(=O)CC[C@@]3(O)[C@H]1C5` [naloxone], the Tmax [2] is reported as 15 min, the AUC (in vivo; 0.8 mg) is reported as 8.33 ng·h/mL and the Cmax (in vivo; 0.8 mg) is reported as 25 ng/mL. It also gave an AUC (in vivo; 8 mg) of 58.3 ng·h/mL, a Cmax (in vivo; 8 mg) of 52 ng/mL and a Tmax (in vivo; 8 mg) of 18 min. For the same compound, the AUC (in vivo; im, 0.4 mg) was 10 ng·h/mL, the Cmax (in vivo; im, 0.4 mg) was 9 ng/mL and the Tmax (in vivo; im, 0.4 mg) was 22 min.

From patent publication US20190070396A1 (priority 2017, published 2019)
